Experimental data from PubChem BioAssay AID1963444 (Molecular Pharmacology Branch, DTP, NCI, 2024).
Values belong to the compound of their own block, whether it stands above or below them.

Tested on: HSSY-II complex spheroid growth, percent test/control
Experiment: Anticancer human tumor HSSY-II cell line growth inhibition [Asc];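 also: spheroids exposed to drug for 7 days before reading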
Settings: for IC50: curve of first compound; for viability, T/C: stronger effect = lower value
In short: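 Tumor cells were grown as complex spheroids with human endothelial cells (HUVEC) and human mesenchymal stem cells as stroma. Agents were tested alone and in combination, in half-log steps down from the clinical Cmax, or from 10 microM where Cmax was unknown.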

[1] = second compound 0.1 µM, first compound 0.0316 µM
[2] = second compound 0.1 µM, first compound 0.1 µM
[3] = second compound 0.1 µM, first compound 0.316 µM
[4] = second compound 0.1 µM, first compound 1 µM
[5] = second compound 0.1 µM, first compound 3.16 µM
[6] = second compound 0.1 µM, first compound 10 µM
[7] = second compound 0.316 µM, first compound 0.0316 µM
[8] = second compound 0.316 µM, first compound 0.1 µM
[9] = second compound 0.316 µM, first compound 0.316 µM
[10] = second compound 0.316 µM, first compound 1 µM
[11] = second compound 0.316 µM, first compound 3.16 µM
[12] = second compound 0.316 µM, first compound 10 µM
[13] = second compound 1 µM, first compound 0.0316 µM
[14] = second compound 1 µM, first compound 0.1 µM
[15] = second compound 1 µM, first compound 0.316 µM
[16] = second compound 1 µM, first compound 1 µM
[17] = second compound 1 µM, first compound 3.16 µM
[18] = second compound 1 µM, first compound 10 µM
[19] = second compound 3.16 µM, first compound 0.0316 µM
[20] = second compound 3.16 µM, first compound 0.1 µM
[21] = second compound 3.16 µM, first compound 0.316 µM
[22] = second compound 3.16 µM, first compound 1 µM
[23] = second compound 3.16 µM, first compound 3.16 µM
[24] = second compound 3.16 µM, first compound 10 µM
[25] = second compound 10 µM, first compound 0.0316 µM
[26] = second compound 10 µM, first compound 0.1 µM
[27] = second compound 10 µM, first compound 0.316 µM
[28] = second compound 10 µM, first compound 1 µM
[29] = second compound 10 µM, first compound 3.16 µM
[30] = second compound 10 µM, first compound 10 µM

- IC50 (second compound 0.1 µM): 1440 nM
- IC50 (second compound 0.316 µM): 1360 nM
- IC50 (second compound 1 µM): 1150 nM
- IC50 (second compound 3.16 µM): 1030 nM
- IC50 (second compound 10 µM): 997 nM
SMILES: C=C(F)C(=O)N1CCN(c2nc(OCC3CCCN3C)nc3c2CCN(c2cccc4cccc(Cl)c24)C3)CC1CC#N (stereo not given) + Cc1c(S(C)(=O)=O)c(-c2cc(F)cc(N3CCN(c4ccc(NS(=O)(=O)c5ccc(NC(CCN6CCC(C(=O)OCCCP(=O)(O)O)CC6)CSc6ccccc6)c(S(=O)(=O)C(F)(F)F)c5)cc4)CC3)c2)c(-c2ccc(Cl)cc2)n1C(C)C
- viability, T/C [1]: 106%
- viability, T/C [2]: 106%
- viability, T/C [3]: 86.7%
- viability, T/C [4]: 72.7%
- viability, T/C [5]: 0.9%
- viability, T/C [6]: 0.13%
- viability, T/C [7]: 105%
- viability, T/C [8]: 92%
- viability, T/C [9]: 84%
- viability, T/C [10]: 68%
- viability, T/C [11]: 0.59%
- viability, T/C [12]: 0.11%
- viability, T/C [13]: 98.4%
- viability, T/C [14]: 97.3%
- viability, T/C [15]: 95.6%
- viability, T/C [16]: 57%
- viability, T/C [17]: 0.36%
- viability, T/C [18]: 0.12%
- viability, T/C [19]: 104%
- viability, T/C [20]: 98%
- viability, T/C [21]: 97%
- viability, T/C [22]: 51.6%
- viability, T/C [23]: 0.27%
- viability, T/C [24]: 0.13%
- viability, T/C [25]: 106%
- viability, T/C [26]: 113%
- viability, T/C [27]: 85.3%
- viability, T/C [28]: 55.7%
- viability, T/C [29]: 0.4%
- viability, T/C [30]: 0.22%

- IC50 (second compound 0.1 µM): > 10000 nM
- IC50 (second compound 0.316 µM): > 10000 nM
- IC50 (second compound 1 µM): > 10000 nM
- IC50 (second compound 3.16 µM): > 10000 nM
- IC50 (second compound 10 µM): > 10000 nM
SMILES: C=CC(=O)N1CCN(c2nc(=O)n(-c3c(C)ccnc3C(C)C)c3nc(-c4c(O)cccc4F)c(F)cc23)C(C)C1 (stereo not given) + Cc1c(S(C)(=O)=O)c(-c2cc(F)cc(N3CCN(c4ccc(NS(=O)(=O)c5ccc(NC(CCN6CCC(C(=O)OCCCP(=O)(O)O)CC6)CSc6ccccc6)c(S(=O)(=O)C(F)(F)F)c5)cc4)CC3)c2)c(-c2ccc(Cl)cc2)n1C(C)C
- viability, T/C [1]: 116%
- viability, T/C [2]: 121%
- viability, T/C [3]: 105%
- viability, T/C [4]: 111%
- viability, T/C [5]: 97.8%
- viability, T/C [6]: 67.7%
- viability, T/C [7]: 114%
- viability, T/C [8]: 110%
- viability, T/C [9]: 105%
- viability, T/C [10]: 99.9%
- viability, T/C [11]: 114%
- viability, T/C [12]: 67.8%
- viability, T/C [13]: 104%
- viability, T/C [14]: 111%
- viability, T/C [15]: 96.4%
- viability, T/C [16]: 100%
- viability, T/C [17]: 105%
- viability, T/C [18]: 51.3%
- viability, T/C [19]: 109%
- viability, T/C [20]: 99.9%
- viability, T/C [21]: 101%
- viability, T/C [22]: 107%
- viability, T/C [23]: 103%
- viability, T/C [24]: 55%
- viability, T/C [25]: 100%
- viability, T/C [26]: 99.2%
- viability, T/C [27]: 93.1%
- viability, T/C [28]: 110%
- viability, T/C [29]: 96.7%
- viability, T/C [30]: 61.3%

- IC50 (second compound 0.1 µM): 100 nM
- IC50 (second compound 0.316 µM): 59.4 nM
- IC50 (second compound 1 µM): 83.5 nM
- IC50 (second compound 3.16 µM): 54.2 nM
- IC50 (second compound 10 µM): 53.9 nM
SMILES: CCN1C(C(=O)NC23CCC(C(=O)O)(CC2)CC3)C(c2cccc(Cl)c2F)C2(C(=O)Nc3cc(Cl)ccc32)C12CCCCC2 (stereo not given) + Cc1c(S(C)(=O)=O)c(-c2cc(F)cc(N3CCN(c4ccc(NS(=O)(=O)c5ccc(NC(CCN6CCC(C(=O)OCCCP(=O)(O)O)CC6)CSc6ccccc6)c(S(=O)(=O)C(F)(F)F)c5)cc4)CC3)c2)c(-c2ccc(Cl)cc2)n1C(C)C
- viability, T/C (second compound 0.1 µM, first compound 0.00949 µM): 106%
- viability, T/C (second compound 0.1 µM, first compound 0.03 µM): 92.7%
- viability, T/C (second compound 0.1 µM, first compound 0.0949 µM): 49.4%
- viability, T/C (second compound 0.1 µM, first compound 0.3 µM): 19.4%
- viability, T/C (second compound 0.1 µM, first compound 0.949 µM): 3.79%
- viability, T/C (second compound 0.1 µM, first compound 3 µM): 0.58%
- viability, T/C (second compound 0.316 µM, first compound 0.00949 µM): 102%
- viability, T/C (second compound 0.316 µM, first compound 0.03 µM): 78.1%
- viability, T/C (second compound 0.316 µM, first compound 0.0949 µM): 29.7%
- viability, T/C (second compound 0.316 µM, first compound 0.3 µM): 11.1%
- viability, T/C (second compound 0.316 µM, first compound 0.949 µM): 3.4%
- viability, T/C (second compound 0.316 µM, first compound 3 µM): 0.3%
- viability, T/C (second compound 1 µM, first compound 0.00949 µM): 104%
- viability, T/C (second compound 1 µM, first compound 0.03 µM): 84.6%
- viability, T/C (second compound 1 µM, first compound 0.0949 µM): 47.4%
- viability, T/C (second compound 1 µM, first compound 0.3 µM): 9.68%
- viability, T/C (second compound 1 µM, first compound 0.949 µM): 1.67%
- viability, T/C (second compound 1 µM, first compound 3 µM): 0.19%
- viability, T/C (second compound 3.16 µM, first compound 0.00949 µM): 94.3%
- viability, T/C (second compound 3.16 µM, first compound 0.03 µM): 73.3%
- viability, T/C (second compound 3.16 µM, first compound 0.0949 µM): 28%
- viability, T/C (second compound 3.16 µM, first compound 0.3 µM): 4.69%
- viability, T/C (second compound 3.16 µM, first compound 0.949 µM): 1.19%
- viability, T/C (second compound 3.16 µM, first compound 3 µM): 0.17%
- viability, T/C (second compound 10 µM, first compound 0.00949 µM): 92.8%
- viability, T/C (second compound 10 µM, first compound 0.03 µM): 73.6%
- viability, T/C (second compound 10 µM, first compound 0.0949 µM): 27.2%
- viability, T/C (second compound 10 µM, first compound 0.3 µM): 4.78%
- viability, T/C (second compound 10 µM, first compound 0.949 µM): 1.16%
- viability, T/C (second compound 10 µM, first compound 3 µM): 0.26%

- IC50 (second compound 0.1 µM): > 1000 nM
- IC50 (second compound 0.316 µM): > 1000 nM
- IC50 (second compound 1 µM): > 1000 nM
- IC50 (second compound 3.16 µM): > 1000 nM
- IC50 (second compound 10 µM): > 1000 nM
SMILES: CNC(C)C(=O)NC1CN(S(=O)(=O)c2cccc(S(=O)(=O)N3CCC4CCC(C(=O)NC(c5ccccc5)c5ccccc5)N4C(=O)C(NC(=O)C(C)NC)C3)c2)CCC2CCC(C(=O)NC(c3ccccc3)c3ccccc3)N2C1=O (stereo not given) + Cc1c(S(C)(=O)=O)c(-c2cc(F)cc(N3CCN(c4ccc(NS(=O)(=O)c5ccc(NC(CCN6CCC(C(=O)OCCCP(=O)(O)O)CC6)CSc6ccccc6)c(S(=O)(=O)C(F)(F)F)c5)cc4)CC3)c2)c(-c2ccc(Cl)cc2)n1C(C)C
- viability, T/C (second compound 0.1 µM, first compound 0.00316 µM): 114%
- viability, T/C (second compound 0.1 µM, first compound 0.01 µM): 100%
- viability, T/C [1]: 103%
- viability, T/C [2]: 90.6%
- viability, T/C [3]: 96.9%
- viability, T/C [4]: 88.1%
- viability, T/C (second compound 0.316 µM, first compound 0.00316 µM): 116%
- viability, T/C (second compound 0.316 µM, first compound 0.01 µM): 90.5%
- viability, T/C [7]: 90.7%
- viability, T/C [8]: 84.7%
- viability, T/C [9]: 103%
- viability, T/C [10]: 86%
- viability, T/C (second compound 1 µM, first compound 0.00316 µM): 98.7%
- viability, T/C (second compound 1 µM, first compound 0.01 µM): 97%
- viability, T/C [13]: 90.4%
- viability, T/C [14]: 82%
- viability, T/C [15]: 89.3%
- viability, T/C [16]: 90.9%
- viability, T/C (second compound 3.16 µM, first compound 0.00316 µM): 93.2%
- viability, T/C (second compound 3.16 µM, first compound 0.01 µM): 94.2%
- viability, T/C [19]: 81%
- viability, T/C [20]: 81.5%
- viability, T/C [21]: 71.4%
- viability, T/C [22]: 83.3%
- viability, T/C (second compound 10 µM, first compound 0.00316 µM): 93.2%
- viability, T/C (second compound 10 µM, first compound 0.01 µM): 94.7%
- viability, T/C [25]: 80.7%
- viability, T/C [26]: 79.5%
- viability, T/C [27]: 77.4%
- viability, T/C [28]: 76.3%
